From PubChem BioAssay (NCI)
Where “and” joins values, the source holds several entries; their conditions need not be identical. Equal entries are not always repeated.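 Interpolation was linear, between the two tested concentrations surrounding the appropriate level; five concentrations were tested over 48 hours in 96-well plates. Abbreviation: GI50, concentration required for 50% inhibition of growth. TGI is the concentration that stops growth completely.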

Experiments:
Experiment in all cases: DTP human tumour cell line panel, 48 h
[1] = system: CAKI-1 renal
[2] = system: DU-145 prostate
[3] = system: EKVX NSCLC
[4] = system: HCC-2998 colon
[5] = system: HS 578T breast
[6] = system: HT29 colon
[7] = system: KM12 colon
[8] = system: MCF7 breast
[9] = system: NCI/ADR-RES ovarian
[10] = system: UACC-257 melanoma

SMILES	GI50 [1]	TGI [1]	GI50 [2]	TGI [2]	GI50 [3]	TGI [3]	GI50 [4]	TGI [4]	GI50 [5]	TGI [5]	GI50 [6]	TGI [6]	GI50 [7]	TGI [7]	GI50 [8]	TGI [8]	GI50 [9]	TGI [9]	GI50 [10]	TGI [10]
CN(C)CCOc1ccc(-c2nc(-c3ccc4c(c3)CC/C4=N\O)c(-c3ccncc3)[nH]2)cc1	5.18 µM and 16.9 µM	19.5 µM and 44.8 µM	4.11 µM and 9.02 µM	7.82 µM and 17.4 µM	4.7 µM and 9 µM	11 µM and 38.4 µM	4.74 µM and 8.01 µM	8.89 µM and > 27.8 µM	3.96 µM and 25.7 µM	9.4 µM and 65.5 µM	0.127 µM and 0.29 µM	4.53 µM and 3.49 µM	4.39 µM and 2.65 µM	8.07 µM and 6.18 µM	4.52 µM and 3.55 µM	9.03 µM and 16.1 µM	14.1 µM and 62.7 µM	25 µM and > 100 µM	0.0456 µM and 0.0489 µM	1.07 µM and 2.74 µM
COc1cc(C2c3[nH]c4ccccc4c3C[C@H]3COC(=O)N23)cc(OC)c1OC (stereo not given in full)	< 0.01 µM	> 100 µM		6.25 µM		> 100 µM	< 0.01 µM			0.0814 µM	< 0.01 µM	> 100 µM		1.68 µM	< 0.01 µM		0.0586 µM and < 0.01 µM	0.265 µM and 0.0902 µM	< 0.01 µM	> 100 µM
Cc1ccc([N+](=O)[O-])cc1NC(=O)Nc1cccc(F)c1	3.35 µM	> 100 µM	4.54 µM	28.4 µM	3.68 µM	> 100 µM	4.02 µM	> 100 µM	7.92 µM	45.3 µM	4.35 µM	> 100 µM	3.67 µM	48.7 µM	3.63 µM	> 100 µM	3.37 µM	> 100 µM	4.23 µM	> 100 µM
COc1ccc2oc(=O)cc(C(c3ccc[nH]3)c3ccc[nH]3)c2c1		13.1 µM		12.8 µM	0.278 µM	21.5 µM	0.0973 µM	2.15 µM	0.171 µM	50.5 µM	0.104 µM	0.659 µM	0.104 µM	11.3 µM	0.108 µM	14.5 µM	0.0651 µM	5.91 µM	0.468 µM	18 µM
CCCCON(OC(=O)c1ccccc1)C(=O)c1ccccc1	> 100 µM	> 100 µM	> 100 µM	> 100 µM	> 100 µM	> 100 µM	> 100 µM	> 100 µM	> 100 µM	> 100 µM	> 100 µM	> 100 µM	> 100 µM	> 100 µM	> 100 µM	> 100 µM	> 100 µM	> 100 µM	> 100 µM	> 100 µM
O=[N+]([O-])c1ccc(S(=O)(=O)Cc2ccccc2)c([N+](=O)[O-])c1		3.2 µM		9.59 µM		4.36 µM		19.7 µM		> 91.7 µM		5.55 µM		23.7 µM		3.65 µM		> 51.8 µM		3.05 µM
COc1cccc(C2c3cc4c(cc3OC(C)(N3CCCC3)C2C)OCO4)c1OC (stereo not given)		47.4 µM		49.9 µM		78.2 µM		53.2 µM		52.5 µM		22.3 µM		23 µM		98.6 µM		76.8 µM		64.1 µM
COc1cc(C(=O)/C=C/c2c(C)n([O-])c3ccc(C)cc3[n+]2=O)cc(OC)c1OC	2.2 µM		7.88 µM	21.1 µM	19.4 µM	> 100 µM	17 µM	31 µM	14.7 µM	60.7 µM	4.84 µM	16.5 µM	13 µM	27.6 µM	3.3 µM	12.5 µM	8.47 µM	> 70.6 µM	2.54 µM	10.2 µM
CN(Cc1cnc2nc(N)nc(N)c2n1)c1ccc(C(=O)NC(CCC(=O)O)C(=O)O)cc1C(F)(F)F (stereo not given)		> 100 µM		> 100 µM		> 100 µM		> 100 µM		> 100 µM		> 100 µM		> 100 µM		> 100 µM		> 100 µM		> 100 µM
FC(F)(F)Oc1cccc(-c2cnc3ccc(-c4ccncc4)nn23)c1	0.417 µM	4.11 µM	1.6 µM	> 100 µM	1.39 µM	> 100 µM	4.47 µM	> 100 µM	1.21 µM	4.24 µM	1.34 µM	> 100 µM	0.662 µM	> 100 µM	1.56 µM	6.12 µM	2.09 µM	95.5 µM	2.02 µM	
Clc1ccc(CSC(Cn2ccnc2)c2ccc(Cl)cc2Cl)cc1 (stereo not given)	1.55 µM	4.05 µM	2.09 µM	4.64 µM	1.53 µM	4.55 µM	1.64 µM	3.12 µM	1.97 µM	5.02 µM	1.44 µM	2.81 µM	1.66 µM	3.3 µM	1.6 µM	2.99 µM	1.46 µM	3.05 µM	1.43 µM	2.86 µM
N#Cc1c(-c2ccccc2)nc(SCC2CO2)nc1N1CCOCC1 (stereo not given)	1.07 µM	17 µM	14.2 µM	> 100 µM	4.73 µM	> 78.5 µM	0.253 µM	18.2 µM	1.93 µM	11.8 µM	29.7 µM	> 100 µM	25.8 µM	> 100 µM	3.06 µM	> 100 µM	11.3 µM	> 95.5 µM	34.3 µM	> 100 µM
CCOC(=O)c1c2c(c(O)c3ccccc3c(O)n(Cc3ccc(OC)cc3)c1C)C(=O)C=CC2=O	> 100 µM	> 100 µM	> 100 µM	> 100 µM	> 100 µM	> 100 µM	> 100 µM	> 100 µM	> 100 µM	> 100 µM	> 100 µM	> 100 µM	> 100 µM	> 100 µM	> 100 µM	> 100 µM	> 100 µM	> 100 µM	> 100 µM	> 100 µM
C/C(=N\NC(=O)c1sc(=S)n(C)c1N)c1cc2ccccc2o1	37.6 µM	> 100 µM	11.4 µM	27.6 µM	11.9 µM	29.3 µM	11.8 µM	27 µM	11.7 µM	31.2 µM	5.05 µM	18.9 µM	9.12 µM	25.8 µM	12.3 µM	30.4 µM	11 µM	26 µM	12.8 µM	33.4 µM
CCCCC[C@H](O)/C=C/[C@@H]1[C@@H](C/C=C\CCCC(=O)O)[C@@H](O)C[C@H]1O	> 100 µM	> 100 µM	> 100 µM	> 100 µM	> 100 µM	> 100 µM	> 100 µM	> 100 µM	> 100 µM	> 100 µM	> 100 µM	> 100 µM	> 100 µM	> 100 µM	> 100 µM	> 100 µM	> 100 µM	> 100 µM	> 100 µM	> 100 µM
